Counter-ions that a name gives are not always drawn.

One may read the IC50 as the concentration that gives 50% inhibition. Low values mean inhibition by little substance, high ones a need for much substance.

T1 sequence (P14780 107-707 limits assumed): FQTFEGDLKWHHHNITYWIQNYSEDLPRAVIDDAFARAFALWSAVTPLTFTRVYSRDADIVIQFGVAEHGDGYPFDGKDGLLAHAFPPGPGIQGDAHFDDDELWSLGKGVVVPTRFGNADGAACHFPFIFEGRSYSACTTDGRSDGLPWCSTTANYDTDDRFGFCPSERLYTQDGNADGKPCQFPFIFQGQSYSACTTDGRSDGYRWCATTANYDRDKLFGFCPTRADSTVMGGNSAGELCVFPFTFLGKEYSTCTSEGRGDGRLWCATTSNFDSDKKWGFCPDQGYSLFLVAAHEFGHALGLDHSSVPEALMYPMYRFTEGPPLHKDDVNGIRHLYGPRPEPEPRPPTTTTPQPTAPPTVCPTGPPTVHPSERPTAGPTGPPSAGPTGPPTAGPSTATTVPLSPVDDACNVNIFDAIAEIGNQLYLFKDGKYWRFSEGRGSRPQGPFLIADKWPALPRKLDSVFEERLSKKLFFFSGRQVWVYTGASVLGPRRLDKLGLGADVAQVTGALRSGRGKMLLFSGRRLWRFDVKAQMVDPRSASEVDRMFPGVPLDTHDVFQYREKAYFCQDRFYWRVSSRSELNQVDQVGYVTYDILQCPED

This assay has as its target T1, MMP9 (Homo sapiens, UniProt P14780).
T1 construct: endogenous in cells; host or cells: THP1 human monocytic leukemia cells, TPA-stimulated; enzyme purified from culture medium
The assay can be described thus: Assay of MMP9, fluorogenic peptide substrate. The assay is classed as biochemical. The conditions noted are these: activated MMP9 from THP1 cells, 0.5 nM; substrate 25 μM. The procedure: MMP9 is prepared form the culture medium of THP1 human monocytic leukemia cells treated with TPA. THP1 cells are maintained in a culture of DMEM/F-12 with 10% FCS and stimulated to produce pro-MMP9 with TPA (1 nM) in serum-free medium for 48 h. All purification procedures are carried out at 4° C. The 1 liters of culture medium is concentrated to 100 ml by Centricon (Amicon) and applied to a column (1×8 cm) of gelatin-sepharose (Pharmacia) equilibrated with 50 mM Tris-Cl (pH=8.0), 300 mM NaCl. The fraction containing pro-MMP-9 is eluted with 10% DMSO in 50 mM Tris-Cl (pH=8.0), 300 mM NaCl, then dialyzed against 50 mM Tris-Cl (pH 7.5), 150 mM NaCl. The fraction is concentrated by Centricon and subjected to column chromatography of Sephadex G200 (2×20 cm) equilibrated with 50 mM Tris-Cl (pH=7.5) containing 150 mM NaCl. The purified Pro-MMP9 is stored at −80° C. as a stock and the necessary amount of pro-form is used for activation. Pro-MMP9 is activated with 1 mM aminophenyl mercury acetate (APMA, ICN Pharmaceuticals) in 50 mM Tris-Cl (pH=7.5) containing 150 mM NaCl, 10 mM CaCl2 and 0.05% Brij-35 (MMP Assay Buffer) for 18 h at 37° C., and the APMA is removed by extensive dialysis against MMP Assay Buffer. The activated MMP9 is stored frozen at −80° C. until use.
The activated MMP-9 (82 kDa) is then used to screen compounds. A fluorogenic peptide, 2-N-methylaminobenzoic acid (Nma)-Gly-Pro-Gln-Gly-Leu-Ala-Gly-Gln-Lys-N^ε-(2,4-dinitrophenyl)(Dnp)-NH2 (Peptide Institute, Osaka, Japan) is used as the only substrate in all MMPs assay in this study at 25 μM. Stock solutions of the substrate are prepared in 100% DMSO at a concentration 1.0 mM. Assays are performed in MMP Assay Buffer. The reaction mixture is added in duplicate to appropriate wells of a 96 well microfluor plate and preincubated at 37° for 30 min. The reaction is started by the addition of 0.5 nM of activated MMP9. Stock solutions of each inhibitor are prepared by dissolving in 100% DMSO. Inhibitors are added into the assay mixture from the diluted solution with 100% DMSO prepared from the stock solutions. An equal volume of DMSO is added to controls. The final concentration of DMSO from inhibitor and substrate solutions is 5.0%. The increase of fluorescence is monitored at 460 nm with excitation at 355 nm. A time point on a linear part of the curve is chosen to determine the activity. The inhibition results are expressed as the inhibitor concentration that produce 50% inhibition (IC50) of the activity in the control reaction.
Consider “2-[(Cyclopropylmethoxy-benzenesulfonyl)-(4-[1,2,4]triazol-1-yl-benzyl)-amino]-N-hydroxyacetamide-hydrochloride salt [Example 82b]”, for which inhibition was half-maximal at 10.6 nM (IC50).

Compound `COc1ccc(CN(CC(=O)NO)S(=O)(=O)c2ccc(OCCCCl)cc2)cc1` [Example 68, 2-{[4-(3-chloro-propoxy)-benzenesulfonyl]-(4-methoxy-benzyl)amino}-N-hydroxy-acetamide] registered an IC50 of 1.2 nM.

In turn, `C=CCCOc1ccc(S(=O)(=O)N(CC(=O)NO)Cc2ccc(-n3cncn3)cc2)cc1` [Example 79, 2-[(4-but-3-enyloxy-benzenesulfonyl)-(4-[1,2,4]triazol-1-yl-benzyl)-amino]-N-hydroxy-acetamide-hydrochloride salt] had an IC50 of 0.2 nM.

For `C=CCCOc1ccc(S(=O)(=O)N(CC(=O)NO)Cc2ccc(-n3ccnc3)cc2)cc1` [Example 80, 2-[(4-But-3-enyloxy-benzenesulfonyl)-(4-imidazol-1-yl-benzyl)-amino]-N-hydroxy-acetamide-hydrochloride], the IC50 stood at 3.7 nM.

`C=CCCOc1ccc(S(=O)(=O)N(CC(=O)NO)Cc2ccc(N3CCOCC3)cc2)cc1` [Example 81, 2-[(4-But-3-enyloxy-benzenesulfonyl)-(4-morpholin-4-yl-benzyl)-amino]-N-hydroxy-acetamide-hydrochloride] showed an IC50 of 6.3 nM.

As to `O=C(CN(Cc1ccc(-n2cncn2)cc1)S(=O)(=O)c1ccc(OCCC2CC2)cc1)NO` [Example 82a], inhibition was half-maximal at 17 nM (IC50).

As for `O=C(CN(Cc1ccc(-n2cncn2)cc1)S(=O)(=O)c1ccc(OCc2ccoc2)cc1)NO` [Example 82c], inhibition was half-maximal at 7.4 nM (IC50).

In turn, `C=CCCOc1ccc(S(=O)(=O)N(CC(=O)NO)Cc2cccc(F)n2)cc1` [Example 83a, 2-([4-But-3-enyloxy-benzenesulfonyl]-(6-fluoro-pyridine-2-yl)methyl-amino)-N-hydroxyacetamide] returned a half-inhibitory concentration (IC50) of 5.6 nM.

Take `C=CCCOc1ccc(S(=O)(=O)N(CC(=O)NO)Cc2ccc(N3CCCC3)cc2)cc1` [Example 84a, 2-[(4-But-3-enyloxy-benzenesulfonyl)-(4-(pyrrolidin-1-yl)-benzyl)-amino]-N-hydroxyacetamide-hydrochloride]: the 50% inhibitory concentration (IC50) amounted to 19.8 nM. Against the preceding compound, the IC50 is about 3.5-fold higher.

The values above are taken from patent US8034810B2, “Arylsulfonamido-substituted hydroxamic acid derivatives” (Novartis AG, priority 1999, dated 2011).
